Like-named read-outs stand apart in the source and are kept apart here.
Test system: weeds
Test: Actual control effects and combined effects of mixtures of active ingredients (i) and (ii), stem-leaf treatment, Gowing method
Assay type: in vivo
Method: According to the actual control effect and the property of the herbicides, the balance of the formula and other factors, the optimal ratio was determined. In the calculation formula: X represents the fresh weight inhibition rate when the active ingredient (i) is used in an amount of P; and Y represents the fresh weight inhibition rate when the active ingredient (ii) is used in an amount of Q. The statistical results are shown in Tables 9-11 below.

[1] = 480 h, Echinochloa phyllopogon, (ii) 0.6 g a.i./mu, stem-leaf treatment, 20 days, read-out: Control effect of (ii) alone at corresponding dose
[2] = 480 h, Echinochloa phyllopogon, (ii) 3 g a.i./mu, stem-leaf treatment, 20 days, read-out: Control effect of (ii) alone at corresponding dose
[3] = Echinochloa phyllopogon, (ii) 0.6 g a.i./mu, 20 days
[4] = Echinochloa phyllopogon, (ii) 3 g a.i./mu, 20 days
[5] = Monochoria vaginalis, (ii) 3 g a.i./mu, 20 days
[6] = 480 h, Echinochloa phyllopogon, (ii) 15 g a.i./mu, stem-leaf treatment, 20 days, read-out: Control effect of (ii) alone at corresponding dose
[7] = Echinochloa phyllopogon, (ii) 15 g a.i./mu, 20 days
[8] = Echinochloa phyllopogon, (ii) 8 g a.i./mu, 20 days
[9] = Pontederia vaginalis, 480 h, read-out: Control effect of (ii) alone at corresponding dose

For `CCC1(CC2(c3cccc(Cl)c3)CO2)C(=O)c2ccccc2C1=O` (centres unmarked) [Indanofan], the “Control effect of (ii) alone at corresponding dose” value (“Control effect of (ii) alone” below) (Monochoria vaginalis, (ii) 5 g a.i./mu, 20 days) was 20.8%, the pest or weed control at 75 g/ha (Pontederia vaginalis, 480 h, Monochoria vaginalis, (ii) 5 g a.i./mu, stem-leaf treatment, 20 days, read-out: Control effect of (ii) alone at corresponding dose) was 20.8% and the pest or weed control at 180 g/ha (Pontederia vaginalis, 480 h, Monochoria vaginalis, (ii) 12 g a.i./mu, 20 days, read-out: Control effect of (ii) alone at corresponding dose) was 63.1%.

With `CC(C)c1ccc(NC(=O)N(C)C)cc1` [Isoproturon] the pest or weed control at 9 g/ha [1] was 20.3%, the pest or weed control at 45 g/ha [2] was 40.2% and the “Control effect of (ii) alone” value [3] was 20.3%. The “Control effect of (ii) alone” value [4] was 40.2%.

With `Cc1cc(Cl)ccc1OCC(=O)O` [MCPA] the “Control effect of (ii) alone” value [5] was 28.2% and the “Control effect of (ii) alone” value (Monochoria vaginalis, (ii) 3 g a.i./mu, stem-leaf treatment, 20 days) was 28.2%.

With `CN(C(=O)COc1nc2ccccc2s1)c1ccccc1` [Mefenacet] the pest or weed control at 45 g/ha [2] was 19.2%, the pest or weed control at […] [6] was 46.7% and the “Control effect of (ii) alone” value [4] was 19.2%. The “Control effect of (ii) alone” value [7] was 46.7%.

For `CS(=O)(=O)c1ccc(C(=O)C2C(=O)CCCC2=O)c([N+](=O)[O-])c1` [Mesotrione], the pest or weed control at 9 g/ha (480 h, Cyperus difformis, (ii) 0.6 g a.i./mu, 20 days, read-out: Control effect of (ii) alone at corresponding dose) was 29.5%, the pest or weed control at 15 g/ha (480 h, Cyperus difformis, (ii) 1 g a.i./mu, stem-leaf treatment, 20 days, read-out: Control effect of (ii) alone at corresponding dose) was 50.4% and the “Control effect of (ii) alone” value (Cyperus difformis, (ii) 1 g a.i./mu, 20 days) was 50.4%.

`C[C@@H](Oc1ccc(Oc2nc3ccc(Cl)cc3o2)cc1)C(=O)N(C)c1ccccc1F` [Metamifop] was tested, and the “Control effect of (ii) alone” value [3] was 6.8%, the “Control effect of (ii) alone” value (Echinochloa phyllopogon, (ii) 0.6 g a.i./mu, stem-leaf treatment, 20 days) was 6.8% and the “Control effect of (ii) alone” value [8] was 60.9%. The “Control effect of (ii) alone” value (Echinochloa phyllopogon, (ii) 8 g a.i./mu, stem-leaf treatment, 20 days) was 60.9%.

For `COc1cc(OC)nc(NC(=O)NS(=O)(=O)c2c(C3=NOCC(C)O3)c(Cl)nn2C)n1` (centres unmarked) [Metazosulfuron], the “Control effect of (ii) alone” value (Monochoria vaginalis, (ii) 1 g a.i./mu, 20 days) was 25.6%, the “Control effect of (ii) alone” value (Monochoria vaginalis, (ii) 1 g a.i./mu, stem-leaf treatment, 20 days) was 25.6% and the “Control effect of (ii) alone” value (Monochoria vaginalis, (ii) 1.2 g a.i./mu, 20 days) was 30.3%.

In the case of `CCc1cccc(C)c1N(C(=O)CCl)C(C)COC` (centres unmarked) [Metolachlor], the pest or weed control at 45 g/ha (480 h, Digitaria sanguinalis, (ii) 3 g a.i./mu, stem-leaf treatment, 20 days, read-out: Control effect of (ii) alone at corresponding dose) is reported as 15.3%, the pest or weed control at 45 g/ha [2] is reported as 7.8% and the pest or weed control at […] (480 h, Echinochloa phyllopogon, (ii) 15 g a.i./mu, 20 days, read-out: Control effect of (ii) alone at corresponding dose) is reported as 15.3%. For the same compound, the “Control effect of (ii) alone” value [4] was 7.8%.

In the case of `CSc1nnc(C(C)(C)C)c(=O)n1N` [Metribuzin], the pest or weed control at 9 g/ha (480 h, Echinochloa phyllopogon, (ii) 0.6 g a.i./mu, 20 days, read-out: Control effect of (ii) alone at corresponding dose) is reported as 9.1%, the pest or weed control at 45 g/ha [2] is reported as 32.3% and the “Control effect of (ii) alone” value [4] is reported as 32.3%.

With `CCSC(=O)N1CCCCCC1` [Molinate] the pest or weed control at 45 g/ha [2] was 7.8%, the pest or weed control at 450 g/ha (480 h, Echinochloa phyllopogon, (ii) 30 g a.i./mu, 20 days, read-out: Control effect of (ii) alone at corresponding dose) was 40.6% and the “Control effect of (ii) alone” value [4] was 7.8%.

For `CC(C)Oc1cc(-n2nc(C(C)(C)C)oc2=O)c(Cl)cc1Cl` [Oxadiazon], the pest or weed control at 45 g/ha [2] was 14.3%, the pest or weed control at […] [6] was 41.3% and the “Control effect of (ii) alone” value [4] was 14.3%. For the same compound, the “Control effect of (ii) alone” value [7] was 41.3%.

`CC1=C(c2ccccc2)C(=O)N(C(C)(C)c2cc(Cl)cc(Cl)c2)CO1` [Oxaziclomefone] was tested, and the pest or weed control at 9 g/ha [1] was 12.5%, the pest or weed control at 15 g/ha (480 h, Echinochloa phyllopogon, (ii) 1 g a.i./mu, stem-leaf treatment, 20 days, read-out: Control effect of (ii) alone at corresponding dose) was 18.7% and the “Control effect of (ii) alone” value [3] was 12.5%. The “Control effect of (ii) alone” value (Echinochloa phyllopogon, (ii) 1 g a.i./mu, 20 days) was 18.7%.

With `CCOc1cc(Oc2ccc(C(F)(F)F)cc2Cl)ccc1[N+](=O)[O-]` [Oxyfluorfen] the pest or weed control at 3 g/ha (480 h, Echinochloa phyllopogon, (ii) 0.2 g a.i./mu, stem-leaf treatment, 20 days, read-out: Control effect of (ii) alone at corresponding dose) was 6.7%, the pest or weed control at 120 g/ha (480 h, Echinochloa phyllopogon, (ii) 8 g a.i./mu, stem-leaf treatment, 20 days, read-out: Control effect of (ii) alone at corresponding dose) was 76.5% and the “Control effect of (ii) alone” value (Echinochloa phyllopogon, (ii) 0.2 g a.i./mu, 20 days) was 6.7%. The “Control effect of (ii) alone” value [8] was 76.5%.

In the case of `CCC(CC)Nc1c([N+](=O)[O-])cc(C)c(C)c1[N+](=O)[O-]` [Pendimethalin], the pest or weed control at 27 g/ha (480 h, Cyperus difformis, (ii) 1.8 g a.i./mu, 20 days, read-out: Control effect of (ii) alone at corresponding dose) is reported as 6.3%, the pest or weed control at 450 g/ha (480 h, Cyperus difformis, (ii) 30 g a.i./mu, stem-leaf treatment, 20 days, read-out: Control effect of (ii) alone at corresponding dose) is reported as 40.3% and the “Control effect of (ii) alone” value (Cyperus difformis, (ii) 30 g a.i./mu, 20 days) is reported as 40.3%.

With `CC(C)=C1OC(=O)N(c2cc(OC3CCCC3)c(Cl)cc2F)C1=O` [Pentoxazone] the “Control effect of (ii) alone” value (Monochoria vaginalis, (ii) 10 g a.i./mu, 20 days) was 43.6%, the pest or weed control at […] (Pontederia vaginalis, 480 h, Monochoria vaginalis, (ii) 0.5 g a.i./mu, 20 days, read-out: Control effect of (ii) alone at corresponding dose) was 6.4% and the pest or weed control at 150 g/ha (Pontederia vaginalis, 480 h, Monochoria vaginalis, (ii) 10 g a.i./mu, stem-leaf treatment, 20 days, read-out: Control effect of (ii) alone at corresponding dose) was 43.6%.

In the case of `CCCOP(=S)(OCCC)SCC(=O)N1CCCCC1C` (centres unmarked) [Piperophos], the “Control effect of (ii) alone” value [5] is reported as 9.9%, the pest or weed control at 45 g/ha [9] is reported as 9.9% and the pest or weed control at 450 g/ha [9] is reported as 41.2%.

In the case of `CCCOCCN(C(=O)CCl)c1c(CC)cccc1CC` [Pretilachlor], the pest or weed control at 45 g/ha [2] is reported as 15.2%, the pest or weed control at […] [6] is reported as 43.2% and the “Control effect of (ii) alone” value [4] is reported as 15.2%. The “Control effect of (ii) alone” value [7] was 43.2%.

For `CSc1nc(NC(C)C)nc(NC(C)C)n1` [Prometryn], the pest or weed control at 9 g/ha [1] was 21.5%, the pest or weed control at 300 g/ha (480 h, Echinochloa phyllopogon, (ii) 20 g a.i./mu, stem-leaf treatment, 20 days, read-out: Control effect of (ii) alone at corresponding dose) was 68.2% and the “Control effect of (ii) alone” value [3] was 21.5%. The “Control effect of (ii) alone” value (Echinochloa phyllopogon, (ii) 20 g a.i./mu, 20 days) was 68.2%.

Reference: patent US20230041563A1, “N-(1,3,4-OXADIAZOL-2-YL)ARYLCARBOXAMIDES OR SALTS THEREOF, PREPARATION METHODS, HERBICIDAL COMPOSITIONS AND USES THEREOF” (priority 2018, published 2023)
